In ChEMBL document CHEMBL3286130, “8-Substituted 2-alkynyl-N(9)-propargyladenines as A2A adenosine receptor antagonists” (Bioorg Med Chem, 2014):
The source made the active and inactive calls. The calls are words filed in the database; no cut-off is given here.

Tests used:
Adenosine receptor A2a [1] = biological target: Adenosine receptor A2a (Rattus norvegicus, UniProt P30543); assay: Antagonist activity at adenosine A2A receptor in 5-HT-treated Wistar rat femoral vein assessed as inhibition of 2-octyn-1-yladenosine-induced vasodilation incubated for 10 mins prior to addition of 5-HT
Mus musculus [2] = assay: Anticataleptogenic activity in ddY mouse assessed as reduction in haloperidol-induced catelepsy at 3 mg/kg, po measured after 1 to 7 hrs; type: functional, organism-based; set-up: dose 3 mg/kg
Mus musculus [3] = assay: Anticataleptogenic activity in po dosed ddY mouse assessed as reduction in haloperidol-induced catelepsy measured after 5 hrs; type: functional; settings: for minimal effective dose: read-out: MED
Rattus norvegicus [4] = assay: Antiparkinsonian activity in unilateral 6-hydroxydopamine-lesioned Sprague-Dawley rat assessed as potentiation of L-DOPA-induced turning behavior at 3 mg/kg, po measured for 15 mins; type: functional, organism-based; set-up: dose 3 mg/kg
Adenosine receptor A2a [5] = biological target: Adenosine receptor A2a (Homo sapiens, UniProt P29274); assay: biochemical
Description: Displacement of [3H]-CGS-21680 from human adenosine A2A receptor expressed in HEK293 cells after 90 mins

Rattus norvegicus [6] = assay: Antiparkinsonian activity in unilateral 6-hydroxydopamine-lesioned Sprague-Dawley rat assessed as induction of stereotyped behavior at 3 mg/kg, po measured for 15 mins; type: functional, organism-based; set-up: dose 3 mg/kg
[7] = biological target: Adenosine receptor A2a (Rattus norvegicus) (UniProt P30543); assay: Potency index, ratio of istradefylline IC50 to compound IC50 for adenosine A2A receptor in 5-HT-treated Wistar rat femoral vein assessed as inhibition of 2-octyn-1-yladenosine-induced vasodilation
Sequence of Adenosine receptor A2a (Rattus norvegicus) (P30543 whole entry): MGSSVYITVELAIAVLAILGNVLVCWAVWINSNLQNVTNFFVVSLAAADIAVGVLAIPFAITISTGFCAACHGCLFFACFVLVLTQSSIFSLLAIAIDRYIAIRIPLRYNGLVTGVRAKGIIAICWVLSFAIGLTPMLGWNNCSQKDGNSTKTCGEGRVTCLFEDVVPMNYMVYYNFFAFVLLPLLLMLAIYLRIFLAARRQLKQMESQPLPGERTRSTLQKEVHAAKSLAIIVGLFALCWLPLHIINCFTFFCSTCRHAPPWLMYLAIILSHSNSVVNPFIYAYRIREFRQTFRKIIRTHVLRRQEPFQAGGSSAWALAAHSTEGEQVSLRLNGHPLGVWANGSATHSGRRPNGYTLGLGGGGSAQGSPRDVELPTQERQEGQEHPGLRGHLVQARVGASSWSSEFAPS

Sequence of Adenosine receptor A2a (Rattus norvegicus, UniProt P30543) (P30543 whole entry): as above
Sequence of Adenosine receptor A2a (Homo sapiens, UniProt P29274) (P29274 whole entry): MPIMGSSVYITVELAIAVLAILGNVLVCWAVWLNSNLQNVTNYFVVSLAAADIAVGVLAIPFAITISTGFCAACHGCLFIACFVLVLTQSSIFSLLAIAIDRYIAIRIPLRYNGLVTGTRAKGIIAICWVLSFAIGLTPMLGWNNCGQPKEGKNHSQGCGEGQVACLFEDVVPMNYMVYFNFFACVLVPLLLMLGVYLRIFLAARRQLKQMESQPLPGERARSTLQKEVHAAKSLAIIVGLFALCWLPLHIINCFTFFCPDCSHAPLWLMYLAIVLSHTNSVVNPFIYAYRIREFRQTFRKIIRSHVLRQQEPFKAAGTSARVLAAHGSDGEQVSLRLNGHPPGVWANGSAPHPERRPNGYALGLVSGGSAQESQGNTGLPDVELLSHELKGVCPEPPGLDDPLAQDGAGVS

| SMILES | IC50 (Adenosine receptor A2a [1]) [nM] | also measured |
| --- | --- | --- |
| CCCCCCC#Cc1nc(N)c2ncn(Cc3ccccc3)c2n1 | > 10000 |  |
| C#CCn1c(Br)nc2c(N)nc(C#CC3(O)CCCCC3)nc21 | 0.5 |  |
| C#CCn1c(-c2cccc(F)c2)nc2c(N)nc(C#CCCCCCC)nc21 | 22.8 |  |
| C#CCn1c(-c2ccccc2)nc2c(N)nc(C#CCCCCCC)nc21 | 75.5 |  |
| C=CCn1cnc2c(N)nc(C#CCCCCCC)nc21 | > 10000 |  |
| C#CCn1c(Cl)nc2c(N)nc(C#CC3(O)CCCCC3)nc21 | 3 |  |
| CCCCCCC#Cc1nc(N)c2ncn(CC#N)c2n1 | > 10000 |  |
| CCCCCCC#Cc1nc(N)c2ncn(CCC)c2n1 | > 10000 |  |
| C#CCn1c(-n2nccn2)nc2c(N)nc(C#CCCCCCC)nc21 | 1.9 |  |
| CCn1c(=O)c2c(nc(/C=C/c3ccc(OC)c(OC)c3)n2C)n(CC)c1=O [ISTRADEFYLLINE] |  | Activity (Mus musculus [2]): Active; Activity (Mus musculus [3]): Dose-dependent effect; minimal effective dose (Mus musculus [3]): 3 mg/kg |
| C#CCn1c(-c2ccco2)nc2c(N)nc(C#CCCCCCC)nc21 | 3.6 |  |
| C#CCn1c(Br)nc2c(N)nc(C#CCCCCCC)nc21 | 5.1 | Activity (Rattus norvegicus [4]): Active; Ki (Adenosine receptor A2a [5]): 0.56 nM; Activity (Mus musculus [2]): Active; Activity (Rattus norvegicus [6]): inactive; Activity (Mus musculus [3]): Dose-dependent effect; minimal effective dose (Mus musculus [3]): 3 mg/kg |
| CCCCCCC#Cc1nc(N)c2ncn(CC)c2n1 | 6700 |  |
| CCCCCCC#Cc1nc(N)c2ncn(C3CCCC3)c2n1 | > 10000 |  |
| C#CCn1c(-c2ccco2)nc2c(N)nc(C#CC3(O)CCCCC3)nc21 | 0.4 | Ratio IC50 [7]: 570 |
| CCCCCCC#Cc1nc(N)c2ncn(C)c2n1 | 9000 |  |
| C#CCn1cnc2c(N)nc(C#CCCCCCC)nc21 | 200 |  |
| C#CCn1cnc2c(N)nc(C#CC3(O)CCCCC3)nc21 | 97.3 |  |
| CCCCCCC#Cc1nc(N)c2ncn(CCO)c2n1 | > 10000 |  |
| C#CCn1c(Cl)nc2c(N)nc(C#CCCCCCC)nc21 | 6 |  |
